Values quoted from earlier work, collected in patent publication US20230165871A1, “COMBINATION THERAPIES FOR INHIBITION OF POLO-LIKE KINASE 4” (UNIVERSITY HEALTH NETWORK, priority 2020, published 2023).

Tests used:
[1] = clinical
[2] = test system: cell line and patient-derived xenografts of breast and ovarian cancer; settings: tolerable doses
[3] = in vivo
[4] = test system: cancer cell lines; settings: via induction of apoptosis and cell cycle arrest with induction of aneuploidy

COc1ccc2c(c1)[C@]1(C[C@H]1c1ccc3c(/C=C/c4ccc(CN5C[C@@H](C)O[C@@H](C)C5)cc4)n[nH]c3c1)C(=O)N2 [Compound (I)]
major toxic effects which limit dose [1]: neutropenia, thrombocytopenia, fever, diarrhea and increased liver function tests
anti-tumour effects in xenograft models [2]: potent anti-tumour effects at tolerable doses
oral bioavailability [3]: orally bioavailable
anti-proliferative effects in cancer cell lines [4]: potent anti-proliferative effects
